Legend:
[1] = anti-inflammatory activity of the optical isomers and dl mixture (test not specified); format: in vivo; conditions: α-methyl-fluorene-2-acetic acid, d and l optical isomers and dl mixture
[2] = system: carrageenin-induced edema in the hind paw of the rat; experiment: carrageenin-induced edema assay (oral, hind paw); format: in vivo; conditions: 5 h, carrageenin injected into hind paw 2 h after dose, edema weighed 3 h after injection, read-out: ID50 (calculated dose that produces 50 percent inhibition of the edema)
Experimental: The anti-inflammatory activities of fluorene-2-acetic acid and its derivatives may be tested by a carrageenin-induced edema assay. Carrageenin injected into the footpad of rats produces an edematous condition, due mainly to vaso-active mediators. The compound to be tested is administered orally and assessed for inhibition of the edema.
The following examples show the anti-inflammatory activity of fluorene-2-acetic acid and 7-chloro-fluorene-2-acetic acid as determined by carrageenin-induced edema assay.
The procedure for these experiments is to first orally administer the test compound to a rat. Two hours later a solution of carrageenin is injected into the plantar surface of the hind paw of the rat. Three hours after the injection (5 hours after administration of the drug) the edema in the treated paw is measured by weighing the paws. To establish the baseline, the weight of the contralateral paw is determined. A dose-response curve is established, and the activity of the drug is recorded as the calculated dose that produces 50 percent inhibition (ID50) of the edema.

Structure (SMILES)	anti-inflammatory activity [1]	ED50 [2] [mg/kg]
CC(C(=O)O)c1ccc2c(c1)Cc1ccccc1-2 (stereo not drawn) [dl mixture, α-Methyl fluorene-2-acetic acid]	possesses anti-inflammatory activity	–
O=C(O)Cc1ccc2c(c1)Cc1ccccc1-2 [fluorene-2-acetic acid]	–	67
CC(C(=O)O)c1ccc2c(c1)Cc1ccccc1-2 (single isomer, unassigned) [l, α-methyl-fluorene-2-acetic acid]	possesses anti-inflammatory activity	–
CC(C(=O)O)c1ccc2c(c1)Cc1ccccc1-2 (single isomer, unassigned) [d, α-methyl-fluorene-2-acetic acid]	possesses anti-inflammatory activity	–
O=C(O)Cc1ccc2c(c1)Cc1cc(Cl)ccc1-2 [7-chloro-fluorene-2-acetic acid]	–	~150

Source: US4052436A, “Fluorene-2-acetic acids and derivatives, process and method of using” (E. R. Squibb & Sons, Inc., priority 1976, dated 1977)
